# Activity calls are given as the source filed them.
# Experiments:
# [1] = NIH-3T3 fibroblast cytotoxicity, dose response, cytotoxicity control, cell-based, fluorescence, Alamar Blue, secondary assay (AID 2327); assay type: functional;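 note: NIH-3T3 mouse fibroblasts cultured with fluconazole at 8 µg/mL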
# [2] = C. albicans growth with fluconazole, confirmation, fluorescence, retest (AID 2467); assay type: functional, cell-based
# [3] = microbe, parasite or virus in culture; assay type: functional; details: Mycobacterium tuberculosis
# [4] = biological target: T1, Bcl-2-related protein A1 (Mus musculus, UniProt Q07440); assay type: functional;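 note: confirmatory dose–response counterscreen on Bfl-1, used to check hits from a UBC13 polyubiquitin inhibitor campaign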
# T1 sequence (Q07440 whole entry): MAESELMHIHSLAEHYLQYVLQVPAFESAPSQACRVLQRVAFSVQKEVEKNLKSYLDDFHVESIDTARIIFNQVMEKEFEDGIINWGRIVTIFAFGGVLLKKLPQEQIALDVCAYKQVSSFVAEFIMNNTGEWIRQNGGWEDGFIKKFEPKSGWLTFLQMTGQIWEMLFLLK
# [5] = system: Jurkat; experiment: antigen receptor-induced NF-kB inhibitors, dose response, Jurkat, luciferase reporter, luminescence, B- and T-cell (AID 489004); assay type: functional, cell-based; details: Homo sapiens;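 note: NF-kB luciferase reporter Jurkat cells stimulated with PMA plus ionomycin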
# [6] = biological target: T2, Ubiquitin-conjugating enzyme E2 N (Homo sapiens, UniProt P61088); assay type: functional
# T2 sequence (P61088 whole entry): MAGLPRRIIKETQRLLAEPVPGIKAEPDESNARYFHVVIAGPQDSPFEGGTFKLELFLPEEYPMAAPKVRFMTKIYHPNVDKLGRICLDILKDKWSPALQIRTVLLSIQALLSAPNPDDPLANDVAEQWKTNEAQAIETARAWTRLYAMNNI
# [7] = cytotoxicity in HEK-293T NF-kB-Luc cells, dose response, cytotoxicity control for B/T-cell NF-kB inhibitor project, cell-based, uHTS hits (AID 489019); assay type: functional;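 note: IC50 reflects cytotoxicity as loss of cell viability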
# [8] = biological target: T2, Ubiquitin-conjugating enzyme E2 N; assay type: functional; remark: listed apart in the source
# [9] = system: INS1; experiment: beta cell apoptosis inhibitors, cytokine rescue, dose response, luminescence, retest (AID 449756); assay type: functional, cell-based; details: Rattus norvegicus;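 note: cell death triggered by IL-1 beta plus TNF-alpha plus IFN-gamma mixture; protective hits raise ATP signal compared with cytokine alone wells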
# [10] = Luminescence Cell-Based Dose Retest to Confirm Inhibitors of Cancer Stem Cells. [Related pubchem assays (depositor defined):AID2717, AID2721]; assay type: functional; details: Homo sapiens
# [11] = cytotoxicity in HMLE control line with eGFP shRNA, dose response, counter-screen for HMLE_sh_ECad selective toxicity project, cell-based, HMLE_sh_eGFP, luminescence (AID 463074); assay type: functional, Homo sapiens;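 note: HMLE human mammary epithelial cells expressing control shRNA against eGFP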
# [12] = biological target: Beta-lactamase (Pseudomonas aeruginosa, UniProt Q79MP6);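 note: biochemical dose-response test of metallo-beta-lactamase enzyme inhibition, read out by epi-absorbance; purified recombinant IMP-1 metallo-beta-lactamase with nitrocefin as substrate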
# Beta-lactamase (Pseudomonas aeruginosa, UniProt Q79MP6), sequence (Q79MP6 whole entry): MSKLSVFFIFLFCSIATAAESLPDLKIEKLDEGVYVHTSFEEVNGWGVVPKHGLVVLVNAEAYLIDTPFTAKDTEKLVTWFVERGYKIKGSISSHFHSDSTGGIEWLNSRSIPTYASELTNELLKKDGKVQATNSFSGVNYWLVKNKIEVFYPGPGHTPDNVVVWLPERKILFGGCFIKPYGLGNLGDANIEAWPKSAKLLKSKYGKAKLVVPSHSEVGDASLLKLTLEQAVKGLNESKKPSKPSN
# [13] = biological target: Beta-lactamase (Salmonella choleraesuis (strain SC-B67), UniProt Q5J463)
# [14] = biological target: ORF 73 (Human herpesvirus 8, UniProt O40947); experiment: inhibitors of C-LANA binding to LBS DNA, dose response, biochemical, fluorescence polarization, cherry-picked samples (AID 504725); design: species or system Human gammaherpesvirus 8;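 note: fluorescence polarization of a labeled DNA duplex reporting LANA DNA binding; potency is for inhibitors that block LANA binding to the DNA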
# ORF 73, sequence (O40947 whole entry): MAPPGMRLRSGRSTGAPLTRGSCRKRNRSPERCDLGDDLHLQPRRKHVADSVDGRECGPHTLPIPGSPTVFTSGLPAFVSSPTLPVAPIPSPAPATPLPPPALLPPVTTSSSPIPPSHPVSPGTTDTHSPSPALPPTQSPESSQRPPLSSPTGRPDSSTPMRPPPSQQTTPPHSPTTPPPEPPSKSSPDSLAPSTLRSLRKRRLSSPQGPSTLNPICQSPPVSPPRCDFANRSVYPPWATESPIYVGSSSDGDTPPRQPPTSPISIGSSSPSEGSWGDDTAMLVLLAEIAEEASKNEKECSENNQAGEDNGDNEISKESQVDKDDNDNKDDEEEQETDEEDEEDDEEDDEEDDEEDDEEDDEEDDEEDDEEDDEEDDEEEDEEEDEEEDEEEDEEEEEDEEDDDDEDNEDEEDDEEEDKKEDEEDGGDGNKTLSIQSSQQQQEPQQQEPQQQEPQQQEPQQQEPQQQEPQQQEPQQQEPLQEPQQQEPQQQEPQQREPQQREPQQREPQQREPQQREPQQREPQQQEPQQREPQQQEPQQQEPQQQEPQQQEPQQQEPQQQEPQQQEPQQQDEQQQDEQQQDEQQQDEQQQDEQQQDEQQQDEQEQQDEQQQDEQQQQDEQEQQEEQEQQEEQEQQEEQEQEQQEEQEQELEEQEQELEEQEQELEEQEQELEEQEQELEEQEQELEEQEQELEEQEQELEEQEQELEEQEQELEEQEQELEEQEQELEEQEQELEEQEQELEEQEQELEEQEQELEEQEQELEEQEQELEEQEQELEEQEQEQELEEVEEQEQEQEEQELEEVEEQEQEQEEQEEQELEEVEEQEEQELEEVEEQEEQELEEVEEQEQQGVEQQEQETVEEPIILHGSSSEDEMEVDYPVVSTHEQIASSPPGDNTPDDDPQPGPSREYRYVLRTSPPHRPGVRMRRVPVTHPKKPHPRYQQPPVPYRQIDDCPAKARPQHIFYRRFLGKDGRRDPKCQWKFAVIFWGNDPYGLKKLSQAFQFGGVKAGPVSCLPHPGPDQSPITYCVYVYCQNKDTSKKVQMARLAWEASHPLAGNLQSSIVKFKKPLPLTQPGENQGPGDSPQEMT
# [15] = biological target: Keap1/Nrf2 (Homo sapiens, UniProt Q14145); experiment: Keap1-Nrf2 protein-protein interaction inhibitors, dose response, biochemical, fluorescence polarization, cherry-picked samples (AID 588683)
# [16] = biological target: Envelope glycoprotein gp160 (Human immunodeficiency virus 1, UniProt Q6QLK5); experiment: inhibitors of HIV fusion peptide binding, primary screen, biochemical, uHTS, fluorescence dequenching (AID 1986)
# [17] = biological target: T3, Short transient receptor potential channel 4 (Mus musculus, UniProt Q9QUQ5); experiment: mouse TRPC4 channel inhibitors, dose response, cell-based, HEK293 TRPC4/mu-opioid, Fluo-4 calcium (AID 434942); assay type: functional;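 note: potency of inhibitors blocking the TRPC4 calcium response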
# T3 sequence (Q9QUQ5 whole entry): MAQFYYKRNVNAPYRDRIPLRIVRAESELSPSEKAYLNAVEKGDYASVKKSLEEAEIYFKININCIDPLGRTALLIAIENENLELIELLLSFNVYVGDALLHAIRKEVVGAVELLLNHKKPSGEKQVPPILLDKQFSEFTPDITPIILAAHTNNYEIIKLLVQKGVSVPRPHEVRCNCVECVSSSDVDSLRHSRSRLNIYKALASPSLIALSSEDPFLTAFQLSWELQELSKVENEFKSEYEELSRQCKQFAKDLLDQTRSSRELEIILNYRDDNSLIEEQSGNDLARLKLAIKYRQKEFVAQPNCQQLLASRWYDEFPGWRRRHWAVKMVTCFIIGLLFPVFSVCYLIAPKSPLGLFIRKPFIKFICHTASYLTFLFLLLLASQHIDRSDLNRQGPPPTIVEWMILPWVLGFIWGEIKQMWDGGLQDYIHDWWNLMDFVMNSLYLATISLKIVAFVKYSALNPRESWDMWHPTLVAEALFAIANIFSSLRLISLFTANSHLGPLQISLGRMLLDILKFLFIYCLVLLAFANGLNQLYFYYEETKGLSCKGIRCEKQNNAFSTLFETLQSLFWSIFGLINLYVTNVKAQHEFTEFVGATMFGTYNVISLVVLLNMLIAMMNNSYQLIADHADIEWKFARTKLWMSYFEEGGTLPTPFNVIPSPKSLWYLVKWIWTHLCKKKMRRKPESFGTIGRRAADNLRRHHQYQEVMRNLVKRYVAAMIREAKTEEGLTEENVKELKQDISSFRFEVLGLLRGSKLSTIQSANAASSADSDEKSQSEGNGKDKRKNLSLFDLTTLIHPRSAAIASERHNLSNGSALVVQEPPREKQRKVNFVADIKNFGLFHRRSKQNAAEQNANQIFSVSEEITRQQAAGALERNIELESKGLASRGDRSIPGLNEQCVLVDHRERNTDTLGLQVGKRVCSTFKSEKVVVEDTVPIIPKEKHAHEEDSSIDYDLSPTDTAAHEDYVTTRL
# [18] = system: Vero; experiment: Vero cell cytotoxicity, cytotoxicity control for flavivirus capping enzyme inhibitors (AID 588742); assay type: functional; details: Chlorocebus sabaeus
# [19] = biological target: Genome polyprotein (dengue virus type 2, UniProt P29990); experiment: Dengue-2 NS5 methyltransferase inhibitors, primary screen, biochemical, confirmation dose response (AID 588689); assay type: functional
# [20] = inhibitors of intracellular T. cruzi replication, confirmation, NIH3T3 host cells, beta-gal luminescence (AID 2044); assay type: functional, cell-based;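 note: intracellular parasites grown in NIH/3T3 mouse fibroblasts as host cells; luminescent beta-galactosidase reporter signal from transgenic T. cruzi replicating inside host cells; inhibitors lower the luminescence signal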
# [21] = cytotoxicity toward NIH3T3 fibroblasts, dose response, counter-screen, cell-based, ATP luminescence, mouse fibroblasts (AID 2010); assay type: functional;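 note: cells exposed to compound for about 90 hours before reading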
# [22] = biological target: T4, CAAX prenyl protease 2 (Saccharomyces cerevisiae S288c, UniProt Q03530); assay type: biochemical
# T4 sequence (Q03530 whole entry): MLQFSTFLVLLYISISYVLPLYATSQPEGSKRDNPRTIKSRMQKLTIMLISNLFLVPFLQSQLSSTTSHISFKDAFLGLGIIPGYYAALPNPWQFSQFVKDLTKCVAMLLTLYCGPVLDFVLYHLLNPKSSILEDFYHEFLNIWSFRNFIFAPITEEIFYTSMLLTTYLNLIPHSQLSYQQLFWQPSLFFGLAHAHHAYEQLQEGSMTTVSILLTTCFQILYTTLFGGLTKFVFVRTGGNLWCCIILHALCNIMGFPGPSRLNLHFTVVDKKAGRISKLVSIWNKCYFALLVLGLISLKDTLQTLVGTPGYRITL
# [23] = biological target: Delta-type opioid receptor (Homo sapiens, UniProt P41143); experiment: Counterscreen for agonists of heterodimerization of the mu 1 (OPRM1) and delta 1 (OPRD1) opioid receptors: Luminescence-based cell-based high throughput dose response assay to identify agonists of OPRD1 homodimerization. [Related pubchem assays (depositor defined):AID504326, AID504355, AID504692, AID504904, AID504905]; assay type: functional
# Delta-type opioid receptor, sequence (P41143 whole entry): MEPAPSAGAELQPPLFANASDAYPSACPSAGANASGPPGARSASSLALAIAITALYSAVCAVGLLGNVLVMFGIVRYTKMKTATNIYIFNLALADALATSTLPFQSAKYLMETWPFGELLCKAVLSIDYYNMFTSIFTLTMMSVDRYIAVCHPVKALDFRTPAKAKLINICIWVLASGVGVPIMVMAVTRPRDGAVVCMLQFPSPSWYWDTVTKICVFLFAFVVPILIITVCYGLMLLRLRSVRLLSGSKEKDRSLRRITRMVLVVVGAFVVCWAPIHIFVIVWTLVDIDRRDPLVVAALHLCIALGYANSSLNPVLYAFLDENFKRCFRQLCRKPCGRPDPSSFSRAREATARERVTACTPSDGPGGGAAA
# [24] = biological target: Mu-type opioid receptor (Homo sapiens, UniProt P35372); experiment: Counterscreen for agonists of heterodimerization of the mu 1 (OPRM1) and delta 1 (OPRD1) opioid receptors: Luminescence-based cell-based high throughput dose response assay to identify agonists of OPRM1 homodimerization.; assay type: functional;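 note: U2OS cells expressing OPRM1 and beta-arrestin as split beta-galactosidase partners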
# Mu-type opioid receptor, sequence (P35372 whole entry): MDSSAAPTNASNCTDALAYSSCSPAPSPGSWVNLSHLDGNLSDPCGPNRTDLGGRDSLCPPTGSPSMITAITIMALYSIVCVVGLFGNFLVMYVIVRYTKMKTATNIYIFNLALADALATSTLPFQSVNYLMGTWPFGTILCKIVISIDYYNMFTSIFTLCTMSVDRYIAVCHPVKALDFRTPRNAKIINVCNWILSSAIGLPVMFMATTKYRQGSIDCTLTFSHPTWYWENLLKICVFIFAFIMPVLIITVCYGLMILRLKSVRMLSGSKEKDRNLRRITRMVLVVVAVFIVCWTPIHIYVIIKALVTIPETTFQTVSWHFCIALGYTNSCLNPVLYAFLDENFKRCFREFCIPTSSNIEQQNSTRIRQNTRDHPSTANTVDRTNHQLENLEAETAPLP
# [25] = biological target: 5-hydroxytryptamine receptor 5A (Homo sapiens, UniProt P47898); experiment: Counterscreen for agonists of OPRM1-OPRD1 heterodimerization: luminescence-based cell-based high throughput dose response assay to identify agonists of 5-hydroxytryptamine (serotonin) 5A receptor (HTR5A). [Related pubchem assays (depositor defined):AID504326, AID504355, AID504692, AID504904, AID504905]; assay type: functional
# [26] = biological target: CAAX prenyl protease 2 (Homo sapiens, UniProt Q9Y256); experiment: human Rce1 protease inhibitors, dose response, biochemical, yeast membranes, quenched-peptide fluorescence, cherry-pick (AID 588849)
# [27] = biological target: Hexokinase-1 (Homo sapiens, UniProt P19367); experiment: SAR analysis of small molecule inhibitors of hexokinase domain containing I (HKDC1) in the hexokinase 1 selectivity assay. [Related pubchem assays (depositor defined):AID493160, AID493190]; assay type: functional
# Hexokinase-1, sequence (P19367 whole entry, the tested form may be a part): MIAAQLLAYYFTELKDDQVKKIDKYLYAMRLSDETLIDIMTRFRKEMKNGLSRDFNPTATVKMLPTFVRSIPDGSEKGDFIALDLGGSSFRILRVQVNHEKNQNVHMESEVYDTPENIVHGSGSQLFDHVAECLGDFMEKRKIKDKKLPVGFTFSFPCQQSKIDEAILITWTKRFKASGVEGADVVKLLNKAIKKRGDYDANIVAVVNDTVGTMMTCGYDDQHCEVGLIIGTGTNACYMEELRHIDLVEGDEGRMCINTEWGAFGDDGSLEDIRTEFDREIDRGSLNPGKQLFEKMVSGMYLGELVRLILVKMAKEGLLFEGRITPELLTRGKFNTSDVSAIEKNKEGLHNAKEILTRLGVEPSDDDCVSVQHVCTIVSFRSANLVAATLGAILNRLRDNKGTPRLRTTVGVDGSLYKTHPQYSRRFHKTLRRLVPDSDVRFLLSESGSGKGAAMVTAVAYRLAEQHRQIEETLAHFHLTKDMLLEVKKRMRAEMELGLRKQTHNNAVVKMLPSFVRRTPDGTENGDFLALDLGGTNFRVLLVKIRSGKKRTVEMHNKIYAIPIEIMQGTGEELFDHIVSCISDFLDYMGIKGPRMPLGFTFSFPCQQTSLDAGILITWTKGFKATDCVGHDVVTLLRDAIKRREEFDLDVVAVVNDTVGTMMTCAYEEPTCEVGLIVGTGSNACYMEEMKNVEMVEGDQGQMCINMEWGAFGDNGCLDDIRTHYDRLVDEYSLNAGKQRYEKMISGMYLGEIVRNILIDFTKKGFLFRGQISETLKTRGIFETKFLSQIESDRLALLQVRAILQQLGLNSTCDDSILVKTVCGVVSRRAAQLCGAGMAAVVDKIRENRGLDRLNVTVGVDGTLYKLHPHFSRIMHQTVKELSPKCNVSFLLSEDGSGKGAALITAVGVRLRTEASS
# [28] = biological target: T5, Hexokinase HKDC1 (Homo sapiens, UniProt Q2TB90); experiment: SAR analysis of small molecule inhibitors of hexokinase domain containing I (HKDC1). [Related pubchem assays (depositor defined):AID493160, AID493190]; assay type: functional
# T5 sequence (Q2TB90 whole entry): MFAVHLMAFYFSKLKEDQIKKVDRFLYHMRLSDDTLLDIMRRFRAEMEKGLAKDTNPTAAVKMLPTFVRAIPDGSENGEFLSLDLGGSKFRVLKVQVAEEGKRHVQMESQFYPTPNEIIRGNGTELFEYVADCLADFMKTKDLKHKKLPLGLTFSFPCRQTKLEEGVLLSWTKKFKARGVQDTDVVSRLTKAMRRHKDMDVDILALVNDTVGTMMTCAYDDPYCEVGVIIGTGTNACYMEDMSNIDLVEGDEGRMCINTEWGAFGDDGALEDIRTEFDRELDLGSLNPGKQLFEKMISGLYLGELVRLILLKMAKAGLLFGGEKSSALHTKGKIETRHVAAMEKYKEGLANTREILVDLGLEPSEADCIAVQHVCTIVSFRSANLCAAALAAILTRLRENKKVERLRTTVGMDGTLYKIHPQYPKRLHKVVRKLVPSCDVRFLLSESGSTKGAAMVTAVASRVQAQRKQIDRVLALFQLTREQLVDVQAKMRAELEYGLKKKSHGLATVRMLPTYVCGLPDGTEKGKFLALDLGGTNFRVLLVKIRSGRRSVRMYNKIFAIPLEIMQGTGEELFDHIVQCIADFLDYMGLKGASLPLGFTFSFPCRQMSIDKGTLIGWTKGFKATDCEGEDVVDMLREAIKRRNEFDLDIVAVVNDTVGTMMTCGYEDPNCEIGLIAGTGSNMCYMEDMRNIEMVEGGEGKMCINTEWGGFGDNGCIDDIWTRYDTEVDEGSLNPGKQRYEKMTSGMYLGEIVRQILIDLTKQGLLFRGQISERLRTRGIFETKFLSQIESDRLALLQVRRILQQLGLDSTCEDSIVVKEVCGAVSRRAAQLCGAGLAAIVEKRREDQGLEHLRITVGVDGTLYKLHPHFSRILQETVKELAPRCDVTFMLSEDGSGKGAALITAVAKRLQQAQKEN
# [29] = biological target: Cysteine protease ATG4B (Homo sapiens, UniProt Q9Y4P1); assay type: functional;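 note: Fluorescence-based dose-response confirmation assay measuring inhibition of ATG4B activity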
# Cysteine protease ATG4B, sequence (Q9Y4P1 whole entry): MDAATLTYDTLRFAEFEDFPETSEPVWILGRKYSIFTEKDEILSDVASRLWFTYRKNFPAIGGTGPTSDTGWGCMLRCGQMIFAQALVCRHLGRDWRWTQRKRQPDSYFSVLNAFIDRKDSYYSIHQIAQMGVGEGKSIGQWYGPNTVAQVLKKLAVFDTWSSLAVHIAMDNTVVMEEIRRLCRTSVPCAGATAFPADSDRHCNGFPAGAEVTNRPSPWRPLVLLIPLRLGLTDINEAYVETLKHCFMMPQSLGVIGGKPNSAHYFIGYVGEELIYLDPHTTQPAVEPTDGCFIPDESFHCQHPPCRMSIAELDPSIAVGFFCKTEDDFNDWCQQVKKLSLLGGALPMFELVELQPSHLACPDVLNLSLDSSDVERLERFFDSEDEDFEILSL
# [30] = biological target: Phospholipase A2 (Homo sapiens, UniProt P04054); assay type: functional;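 note: confirmatory dose-response counterscreen on phospholipase A2, testing hits that came from an ultra-high-throughput screen for ATG4B inhibitors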
# Phospholipase A2, sequence (P04054 whole entry): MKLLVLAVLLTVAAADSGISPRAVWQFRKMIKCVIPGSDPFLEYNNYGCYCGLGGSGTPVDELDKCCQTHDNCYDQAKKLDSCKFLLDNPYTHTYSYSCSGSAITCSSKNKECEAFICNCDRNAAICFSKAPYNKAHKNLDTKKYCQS
# [31] = system: Candida albicans; experiment: growth inhibition of resistant C. albicans, dose response, CaCi-8 strain, fluconazole, dry powder, set 4 (AID 488950); assay type: functional, organism-based
# [32] = system: Candida albicans; experiment: fluconazole resistance reversal in C. albicans, dose response, CaCi-2 strain, Alamar Blue, dry powder, set 4 (AID 488943); assay type: functional, organism-based
# [33] = system: Candida albicans; experiment: growth inhibition of azole-resistant C. albicans, dose response, CaCi-8 strain, Alamar Blue, dry powder, set 3 (AID 488905); assay type: functional, organism-based
# [34] = system: Candida albicans; experiment: reversal of fluconazole resistance in C. albicans, dose response, CaCi-2 strain, Alamar Blue, dry powder, set 3 (AID 488907); assay type: functional, organism-based
# [35] = biological target: Voltage-gated inwardly rectifying potassium channel KCNH2 (Homo sapiens, UniProt Q12809); details: Potency;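 note: confirmatory quantitative high-throughput screen measuring inhibition of hERG channel activity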
# Voltage-gated inwardly rectifying potassium channel KCNH2, sequence (Q12809 whole entry): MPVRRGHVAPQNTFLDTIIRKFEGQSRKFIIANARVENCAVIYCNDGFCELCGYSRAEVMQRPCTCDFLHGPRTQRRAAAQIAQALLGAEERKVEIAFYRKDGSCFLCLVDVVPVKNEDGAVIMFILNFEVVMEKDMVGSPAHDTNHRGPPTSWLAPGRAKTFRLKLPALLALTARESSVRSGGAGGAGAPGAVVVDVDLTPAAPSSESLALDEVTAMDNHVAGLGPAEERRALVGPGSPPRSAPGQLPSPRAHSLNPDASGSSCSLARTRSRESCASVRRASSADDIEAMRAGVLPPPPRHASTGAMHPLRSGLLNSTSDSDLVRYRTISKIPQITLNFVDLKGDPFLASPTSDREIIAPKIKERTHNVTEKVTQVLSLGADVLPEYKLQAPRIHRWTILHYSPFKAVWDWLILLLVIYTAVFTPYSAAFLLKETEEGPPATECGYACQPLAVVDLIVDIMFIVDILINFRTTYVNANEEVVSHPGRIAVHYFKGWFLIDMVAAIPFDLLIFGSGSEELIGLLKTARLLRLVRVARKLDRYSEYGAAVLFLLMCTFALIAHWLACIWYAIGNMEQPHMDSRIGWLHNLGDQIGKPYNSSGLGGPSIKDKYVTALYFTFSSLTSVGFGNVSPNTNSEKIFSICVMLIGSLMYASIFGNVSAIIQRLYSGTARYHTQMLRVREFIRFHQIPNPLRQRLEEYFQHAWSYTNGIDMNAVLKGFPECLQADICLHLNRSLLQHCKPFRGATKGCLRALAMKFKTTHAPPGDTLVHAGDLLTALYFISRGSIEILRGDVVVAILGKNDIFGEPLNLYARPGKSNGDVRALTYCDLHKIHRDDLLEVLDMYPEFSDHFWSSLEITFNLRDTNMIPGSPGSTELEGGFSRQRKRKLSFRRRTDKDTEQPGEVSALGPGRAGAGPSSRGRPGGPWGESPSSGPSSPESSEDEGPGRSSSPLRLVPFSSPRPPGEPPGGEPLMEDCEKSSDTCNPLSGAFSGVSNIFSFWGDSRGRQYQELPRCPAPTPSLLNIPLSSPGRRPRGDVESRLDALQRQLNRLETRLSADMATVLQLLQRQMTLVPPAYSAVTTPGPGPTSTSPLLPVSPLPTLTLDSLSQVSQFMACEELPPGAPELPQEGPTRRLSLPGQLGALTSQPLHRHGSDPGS
# [36] = biological target: Dual specificity protein phosphatase 3 (Homo sapiens, UniProt P51452); experiment: SAR VHR1 Fluorescent Assay for In Vitro dose response studies Set 3. [Related pubchem assays (depositor defined):AID1654, AID1661, AID1878]; assay type: functional
# Dual specificity protein phosphatase 3, sequence (P51452 whole entry): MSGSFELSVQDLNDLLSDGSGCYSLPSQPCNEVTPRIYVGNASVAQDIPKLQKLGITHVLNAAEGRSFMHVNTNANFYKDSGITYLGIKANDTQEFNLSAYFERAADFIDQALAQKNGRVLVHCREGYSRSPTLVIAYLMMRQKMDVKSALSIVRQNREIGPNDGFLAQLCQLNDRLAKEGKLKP
compound,measurement,setting,value
CCC(C)(C)c1ccc(OCCCC[n+]2ccc(C)cc2)c(C(C)(C)CC)c1,EC50,[1],> 160 µM (inactive)
same,EC50,[2],0.344 µM (active)
same,CC50,[3],> 40 µM (active)
same,IC50,[4],> 20 µM (inactive)
same,IC50,[5],4.32 µM (active)
same,IC50,[6],12.6 µM (active)
same,IC50,[7],62.2 µM (inactive)
same,IC50,[8],> 20 µM (inactive)
same,AC50,[9],1.26 µM (active)
Oc1ccccc1C1CC(c2cccs2)=NC(c2cccc(Br)c2)N1 (stereo not drawn),AC50,[10],21.1 µM (active)
same,AC50,[11],23.9 µM (active)
Nc1ccc2c3c(cccc13)C(=O)N(c1ccccc1)C2=O,IC50,[12],12.7 µM (inactive)
same,IC50,[13],4.41 µM (active)
same,AC50,[14],5.56 µM (active)
same,AC50,[15],1.4 µM (active)
CCc1ccc(/C=C2/SC(=S)N(CCCC(=O)Nc3ccccc3C(=O)O)C2=O)cc1,IC50,[16],> 99 µM (inactive)
same,EC50,[1],14 µM (inconclusive)
same,EC50,[2],4.17 µM (active)
same,EC50,[17],4.22 µM (active)
same,CC50,[18],> 40 µM (active)
same,IC50,[19],31.4 µM (active)
CCN(Cc1ccccc1)S(=O)(=O)c1ccc(C(=O)N(CCCN(C)C)c2nc3c(C)c(C)ccc3s2)cc1,EC50,[20],0.373 µM (active)
same,EC50,[21],5.55 µM (active)
same,AC50,[22],11.6 µM (active)
same,EC50,[23],78.9 µM (inactive)
same,EC50,[24],56.3 µM (inactive)
same,EC50,[25],> 92.4 µM (inactive)
same,AC50,[26],18.9 µM (active)
O=C(Nc1cccc(C(F)(F)F)c1)c1cccc(NC(=O)c2ccc3nccnc3c2)c1,IC50,[27],> 80 µM (inactive)
same,IC50,[28],> 80 µM (inactive)
Cc1ccc(C(=O)NC(=S)Nc2ccccc2C(F)(F)F)cc1C,IC50,[29],14.6 µM (active)
same,IC50,[30],6.91 µM (active)
O=C(c1ccc(Cl)cc1)N1CCN(c2ncccn2)CC1,AC50,[31],2.91 µM (active)
same,AC50,[32],3.81 µM (active)
same,AC50,[33],17.6 µM (active)
same,AC50,[34],0.57 µM (active)
c1ccc(P(c2ccccc2)c2ccccc2)cc1,AC50,[35],14.1 µM (inconclusive)
COc1cccc2sc(Nc3nnc(-c4ccccc4)o3)nc12,IC50,[36],12 µM (active)

# Reference: ChEMBL document CHEMBL1201862, “PubChem BioAssay data set” (2004)
